{
  "source": "patent US20190111059A1",
  "about": "“COMPOSITIONS AND METHODS FOR TREATING AUTISM SPECTRUM DISORDER” (Marinus Pharmaceuticals, Inc., priority 2017, published 2019)",
  "key": {"[1]": {"tested_on": "children with non-syndromic autism spectrum disorder (ASD) and language impairment", "experiment": "Randomized placebo-controlled trial: Aberrant Behavior Checklist (ABC), parent questionnaire", "format": "in vivo, human", "settings": "lower = less problems; for ABC Hyperactivity, estimated effect / ABC Inappropriate speech, estimated effect / ABC Irritability, estimated effect / ABC Lethargy, estimated effect / ABC Stereotyped behavior, estimated effect / ABC Total Score, estimated effect: vs placebo, mixed-model regression, calcium salt", "text": "The Aberrant Behavior Checklist (“ABC”) is a 58-item questionnaire that measures disruptive behaviors, including Irritability (15 items, range 0-45); Social Withdrawal (16 items, range 0-48); Stereotypy (7 items, range 0-21); Hyperactivity (16 items, range 0-48) and Inappropriate Speech (4 items, range 0-12). Each item is rated 0 to 3 with higher scores indicating greater severity. Multiple ASD clinical trials have used it and it has convergent and divergent validity. […] This two-arm double-blind randomized placebo-controlled parallel study with a 1:1 allocation was performed at Arkansas Children's Research Institute (Little Rock, Ark., USA) from 4 Jun. 2012 to 22 Nov. 2013. Parent and teacher questionnaires were requested at baseline and 6 and 12 weeks after starting treatment. Parents were asked to deliver baseline questionnaires to teachers or therapists. After the first visit, questionnaires were mailed to the parents and teachers at least 1 week prior to the target date of completion. Parents were asked to bring the completed teacher and parent 12-week questionnaires to the final assessment. Other questionnaires were returned in a preaddressed postage-paid envelope. The target dose of the intervention (INN: DL folinic acid calcium salt; USAN: leucovorin calcium) was 2 mg kg^−1 per day (maximum 50 mg per day) in two equally divided doses with half of the target dose given during the first 2 weeks. Dye-free, milk-product-free, vegetarian capsules were provided in three strengths (5, 10 and 25 mg) by Lee Silsby Compounding Pharmacy (Cleveland Heights, Ohio, USA). Certificate of analysis was provided for each capsule strength by an independent analytical service (Eagle Analytical Services, Houston, Tex., USA) for each batch of capsules produced. In all cases, potency was at least 99%. Secondary outcomes. Secondary outcome measures included the Ohio Autism Clinical Impression Scale (OACIS), Vineland Adaptive Behavior Scale 2nd Edition (VABS) Survey Interview Form and several questionnaires. Parents and teachers were asked to complete the Aberrant Behavior Checklist (ABC), Social Responsiveness Scale (SRS) and Behavioral Assessment System for Children 2nd Edition (BASC). Only parents were asked to complete the Autism Impact Measure (AIM) and Autism Symptoms Questionnaire (ASQ). Secondary outcome measures were analyzed using the mixed-model regression. Because of the large number of secondary outcomes, correction for multiple comparisons was conducted using the false discovery rate."}, "[2]": {"tested_on": "children with non-syndromic autism spectrum disorder (ASD) and language impairment", "experiment": "Randomized placebo-controlled trial: Autism Symptoms Questionnaire (ASQ)", "format": "in vivo, human", "settings": "lower = less autism symptoms; for ASQ Stereotypic behavior, estimated effect / ASQ Total score, estimated effect: calcium salt", "experimental": "The Autism Symptoms Questionnaire (“ASQ) is a 34-item checklist (The Center for Autism and Related Disorders) that assesses social interaction (12 items, range 0-4), stereotyped behavior (7 items, range 0-4), communication symptoms (15 items, range 0-5) and total symptoms (34 items, […]). […] This two-arm double-blind randomized placebo-controlled parallel study with a 1:1 allocation was performed at Arkansas Children's Research Institute (Little Rock, Ark., USA) from 4 Jun. 2012 to 22 Nov. 2013. Parent and teacher questionnaires were requested at baseline and 6 and 12 weeks after starting treatment. Parents were asked to deliver baseline questionnaires to teachers or therapists. After the first visit, questionnaires were mailed to the parents and teachers at least 1 week prior to the target date of completion. Parents were asked to bring the completed teacher and parent 12-week questionnaires to the final assessment. Other questionnaires were returned in a preaddressed postage-paid envelope. The target dose of the intervention (INN: DL folinic acid calcium salt; USAN: leucovorin calcium) was 2 mg kg^−1 per day (maximum 50 mg per day) in two equally divided doses with half of the target dose given during the first 2 weeks. Dye-free, milk-product-free, vegetarian capsules were provided in three strengths (5, 10 and 25 mg) by Lee Silsby Compounding Pharmacy (Cleveland Heights, Ohio, USA). Certificate of analysis was provided for each capsule strength by an independent analytical service (Eagle Analytical Services, Houston, Tex., USA) for each batch of capsules produced. In all cases, potency was at least 99%. Secondary outcomes. Secondary outcome measures included the Ohio Autism Clinical Impression Scale (OACIS), Vineland Adaptive Behavior Scale 2nd Edition (VABS) Survey Interview Form and several questionnaires. Parents and teachers were asked to complete the Aberrant Behavior Checklist (ABC), Social Responsiveness Scale (SRS) and Behavioral Assessment System for Children 2nd Edition (BASC). Only parents were asked to complete the Autism Impact Measure (AIM) and Autism Symptoms Questionnaire (ASQ). Secondary outcome measures were analyzed using the mixed-model regression. Because of the large number of secondary outcomes, correction for multiple comparisons was conducted using the false discovery rate."}, "[3]": {"settings": "vs placebo, mixed-model regression"}, "[4]": {"settings": "vs placebo, mixed-model regression, listed as folinic acid"}},
  "note": "Where a name gives a salt, the structure may show the parent alone.",
  "data": [
    {"smiles": "Nc1nc2c(c(=O)[nH]1)N(C=O)C(CNc1ccc(C(=O)N[C@@H](CCC(=O)O)C(=O)O)cc1)CN2", "note": "(mixture of isomers) [Folinic acid, DL folinic acid calcium salt]", "values": [
      {"measurement": "ABC Inappropriate speech, 12-week assessment mean", "setting": "[1]; 2 mg kg^−1 per day, 12 weeks, baseline 5.2", "result": 4.0, "unit": "Raw Score"},
      {"measurement": "ABC Stereotyped behavior, 12-week assessment mean", "setting": "[1]; 2 mg kg^−1 per day, 12 weeks, baseline 6.1", "result": 3.7, "unit": "Raw Score"},
      {"measurement": "ABC Lethargy, 12-week assessment mean", "setting": "[1]; 2 mg kg^−1 per day, 12 weeks, baseline 13.1", "result": 9.7, "unit": "Raw Score"},
      {"measurement": "ABC Irritability, 12-week assessment mean", "setting": "[1]; 2 mg kg^−1 per day, 12 weeks, baseline 13.4", "result": 9.1, "unit": "Raw Score"},
      {"measurement": "ABC Hyperactivity, 12-week assessment mean", "setting": "[1]; 2 mg kg^−1 per day, 12 weeks, baseline 25.0", "result": 22.1, "unit": "Raw Score"},
      {"measurement": "ABC Total Score, 12-week assessment mean", "setting": "[1]; 2 mg kg^−1 per day, 12 weeks, baseline 62.7", "result": 48.5, "unit": "Raw Score"},
      {"measurement": "ABC Hyperactivity, estimated effect", "setting": "[1]", "result": "−1.8", "unit": "Raw Score"},
      {"measurement": "ABC Inappropriate speech, estimated effect", "setting": "[1]", "result": "−1.7", "unit": "Raw Score"},
      {"measurement": "ABC Irritability, estimated effect", "setting": "[1]", "result": "−1.2", "unit": "Raw Score"},
      {"measurement": "ABC Lethargy, estimated effect", "setting": "[1]", "result": "−1.4", "unit": "Raw Score"},
      {"measurement": "ABC Stereotyped behavior, estimated effect", "setting": "[1]", "result": "−0.9", "unit": "Raw Score"},
      {"measurement": "ABC Total Score, estimated effect", "setting": "[1]", "result": "−4.7", "unit": "Raw Score"},
      {"measurement": "ABC Hyperactivity, estimated effect", "setting": "[1]; listed as folinic acid", "result": "significantly improved"},
      {"measurement": "ABC Inappropriate speech, estimated effect", "setting": "[1]; listed as folinic acid", "result": "significantly improved"},
      {"measurement": "ABC Irritability, estimated effect", "setting": "[1]; listed as folinic acid", "result": "significantly improved"},
      {"measurement": "ABC Lethargy, estimated effect", "setting": "[1]; listed as folinic acid", "result": "significantly improved"},
      {"measurement": "ABC Stereotyped behavior, estimated effect", "setting": "[1]; listed as folinic acid", "result": "significantly improved"},
      {"measurement": "ABC Total Score, estimated effect", "setting": "[1]; listed as folinic acid", "result": "significantly improved"},
      {"measurement": "ASQ Stereotypic behavior, 12-week assessment mean", "setting": "[2]; 2 mg kg^−1 per day, 12 weeks, baseline 3.1", "result": 3.2, "unit": "Raw Score"},
      {"measurement": "ASQ Social, 12-week assessment mean", "setting": "[2]; 2 mg kg^−1 per day, 12 weeks, baseline 3.5", "result": 3.3, "unit": "Raw Score"},
      {"measurement": "ASQ Communication, 12-week assessment mean", "setting": "[2]; 2 mg kg^−1 per day, 12 weeks, baseline 4.7", "result": 4.7, "unit": "Raw Score"},
      {"measurement": "ASQ Total score, 12-week assessment mean", "setting": "[2]; 2 mg kg^−1 per day, 12 weeks, baseline 11.3", "result": 11.2, "unit": "Raw Score"},
      {"measurement": "ASQ Communication, estimated effect", "setting": "[2]; [3]", "result": 0.0, "unit": "Raw Score"},
      {"measurement": "ASQ Social, estimated effect", "setting": "[2]; [3]", "result": "−0.1", "unit": "Raw Score"},
      {"measurement": "ASQ Stereotypic behavior, estimated effect", "setting": "[2]; [3]", "result": "−0.2", "unit": "Raw Score"},
      {"measurement": "ASQ Total score, estimated effect", "setting": "[2]; [3]", "result": "−0.3", "unit": "Raw Score"},
      {"measurement": "ASQ Stereotypic behavior, estimated effect", "setting": "[2]; [4]", "result": "significantly improved"},
      {"measurement": "ASQ Total score, estimated effect", "setting": "[2]; [4]", "result": "significantly improved"}
    ]}
  ]
}
